Here are results for 1 compound from patent US10975123B2, “Mutant Akt-specific capture agents, compositions, and methods of using and making” (California Institute of Technology, priority 2014, dated 2021).

In experiment [1] the test system is E17K 33-mer epitope vs WT 33-mer epitope (6His-tagged). In words: Point ELISA with anchor ligand and 33-mer epitope. The following applies: PEG-biotin-modified yleaf on neutravidin plate; epitope 100 nM-1 μM, in words. The class given is binding. On the procedure: The selectivity of the yleaf (SEQ ID NO: 43) peptide for the E17K 33-mer epitope was also tested in an ELISA assay format. For these assays, the WT or E17K 33-mer peptide fragments were captured using the PEG-biotin-modified yleaf (SEQ ID NO: 43) ligand immobilized on a neutravidin-coated plate.
For these assays, 100 nM Biotin-PEG5-yleaf (SEQ ID NO: 43) (FIG. 12) was immobilized for one hour on a neutravidin-coated ELISA plate (Pierce). The plate was blocked in 5% BSA in 1×TBS for one hour, then again overnight at room temperature. The immobilized anchor was then incubated with either 1 μM or 100 nM wildtype 33-mer epitope or 1 μM or 100 nM E17K mutant 33-mer epitope for one hour. The plate was washed three times with 1×TBS+0.1% Tween-20 and tapped dry. The epitope was then detected by a 1:1,000 dilution of an anti-his mouse mAb (ab18184, Abcam) for one hour, washed as above, and then detected with 1:10,000 dilution of an anti-mouse HRP-conjugated goat pAb (Abcam) for one hour. The plate was once again washed and developed with a 1:1 TMB substrate (KMB) for 15 minutes. To graph the data, the blank (epitope and antibodies binding to plate with no anchor ligand present) was subtracted from the triplicate sample values. […] The triplicate values were then graphed (FIG. 1C) with their error bars and the p-values were calculated by GraphPad.
For orientation: ELISA stands for enzyme-linked immunosorbent assay.

The target of another experiment is T1, GST-Akt1(E17K) protein (Homo sapiens, UniProt P31749, E17K).
T1 construct: 50 μL of full-length GST-E17K Akt1 from SignalChem was treated with 10× molar excess of the anchor ligand; purchased SignalChem
T1 sequence (P31749 whole entry E17K): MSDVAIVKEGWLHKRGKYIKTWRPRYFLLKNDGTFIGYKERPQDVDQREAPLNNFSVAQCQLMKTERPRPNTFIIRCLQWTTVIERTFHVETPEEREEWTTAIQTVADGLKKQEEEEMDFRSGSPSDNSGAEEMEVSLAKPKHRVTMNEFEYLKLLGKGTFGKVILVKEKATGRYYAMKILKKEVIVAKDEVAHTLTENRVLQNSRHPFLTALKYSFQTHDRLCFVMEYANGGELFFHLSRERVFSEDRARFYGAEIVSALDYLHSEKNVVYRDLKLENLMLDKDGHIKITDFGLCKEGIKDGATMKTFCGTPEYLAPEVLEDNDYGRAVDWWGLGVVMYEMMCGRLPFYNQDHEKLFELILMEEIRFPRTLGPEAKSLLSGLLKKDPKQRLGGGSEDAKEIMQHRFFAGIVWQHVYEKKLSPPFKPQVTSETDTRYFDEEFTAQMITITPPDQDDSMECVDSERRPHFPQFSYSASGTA
In words: Ligand-directed tosylate labeling with MALDI-TOF MS of tryptic digests. In kind it is binding. The following applies: yleaf with N-terminal tosylate-Cy5 (ligand 5), 10x molar excess, two days room temperature. The text has this: The selectivity of the yleaf ligand was further verified using the directed labeling technique reported by Tsukiji et al^19. The approach yields information relative to the binding location of the ligand on the protein target. For this method, a payload is attached to the N-terminus of the targeting yleaf ligand through an electrophilic tosylate linker. Upon ligand binding to the protein target, the payload is transferred onto the protein through a nucleophilic SN2 reaction with proximal nucleophilic amino acid side chains (FIG. 3a). The protein can then be trypsin digested and the identity of the fragments containing the payload can be mapped on the protein surface using mass spectrometry (MS). Thus, the site of ligand binding can be estimated. […]
For the assay, yleaf was modified at the N-terminus to contain a tosylate linker attached to a Cy5 dye molecule to enable easy identification of the labeled and digested protein fragments (FIG. 2a and FIG. 16). […] The labeling of protein target was initially confirmed by visualization on a fluorescent gel reader (FIG. 3b) as well as a Western blotting visualization of an experiment in which a biotin-label was substituted for the fluorescent tag. The labeled protein and an unlabeled control were then trypsin digested from the gel and were analyzed by matrix-assisted laser desorption/ionization time-of-flight (MALDI-TOF) MS (FIGS. 18 and 19). […]

Where a SMILES comes first, the peptide text is derived from it. [ ]: non-standard residue; d: D form.

For `CC(C)C[C@@H](NC(=O)[C@H](N)Cc1ccc(O)cc1)C(=O)N[C@H](CCC(=O)O)C(=O)N[C@H](C)C(=O)N[C@H](Cc1ccccc1)C(N)=O` [yleaf] (H-[dY][dL][dE][dA][dF]-NH2; N-terminus assumed), in experiment [1], the “selectivity for E17K 33-mer fragment over WT in point ELISA” value is recorded as “significant selectivity for the E17K fragment over the WT”. At GST-Akt1(E17K) protein, the “location of labeled sites on the protein (binding site, off-target binding)” value is “only sites around the expected N-terminal binding site of the yleaf ligand are labeled”.
